According to patent publication US20260232706A1, “1H-PYRAZOLE ANALOGUES AND METHODS AND USES THEREOF” (University of Manitoba, priority 2022, published 2026):
Values joined by “and” are separate entries in the source; they are usually repeats but may differ in a detail not shown here. Equal values may be shown once. “Also recorded” adds a separate entry of the source.

Test system: SOD1-G37R mouse model of ALS, Het G37R (Line 42) mice
Assay: Therapeutic efficacy in the SOD1-G37R mouse model of ALS
Assay type: in vivo
Experimental: Methods: B^5-EDR analogues were synthesized as described in Example 1. The specific methodology employed for this Example is described below. All the statistical analyses were carried out by using GraphPad Prism […] software (version 9.5.1 (733)), (GraphPad Software, La Jolla, CA). Statistical significance was performed using a two-tailed unpaired t-test used for body weight assessment, disease onset, survival, and weight loss comparisons. Kaplan-Meier survival analysis and log rank test was also used for survival analysis. For these in vivo studies, disease onset or symptom onset was defined by two criteria. The first criteria is defined by the loss of 10% body weight based on the highest recorded weight during the age of the mice after pre symptom onset treatment study. The loss of 10% body weight is often accompanied by appearance of symptoms of muscle weakness and the second criteria of disease onset, which is retrospectively defined as the age at which the mouse reaches peak weight. Mice were assessed and monitored daily by trained staff for weight and muscle weakness starting at 90 days of age i.e., well before clinical onset of disease. According to the common consensus among ALS scientific community, the disease onset is defined as a time when mice have reached their peak body weight well before the denervation induced muscle atrophy and weight loss.
Transgenic mice carrying human G37R mutant SOD1 [B6.Cg Tg(SOD1*G37R)42Dpr/J] were obtained from the Jackson Laboratory (Bar Harbor, ME, USA). These mice were crossed with female mice with a C57BL/6 background for at least four generations. Colonies are maintained in the Central Animal Care Services (CACS), University of Manitoba. The mice were used in accordance with the Guide of Care and Use of Experimental Animals of the Canadian Council on Animal Care. Transgenic offspring were genotyped by PCR of DNA obtained from ear biopsies, see (ia) below, using a protocol provided by the Jackson Laboratory.
For these experiments, a set of experiments was carried out having two groups of mice: • Group 1: Sham treatment (1:20 DMSO/PBS); and • Group 2: NS-1-2 treatment (1:20 DMSO/PBS) (10 mg/kg body weight/day). For these experiments, age matched Het G37R (Line 42) mice were administered vehicle (1:20, DMSO:PBS) or treatment (NS-1-2; 10 mg/kg bodyweight), daily, starting at the age of 90 days until the age of 210 days, and monitored daily for several significant humane point indicators including, a) Mouse unable to right itself in 15 sec b) 25% loss of weight on the highest recorded weight c) Full paralysis of one or more hind limbs d) Loss of bladder functions e) Crusty eyes/loss of vision and/or f) Penile prolapse.
For weight loss experiments, weight loss was based on highest recorded weight (humane end point).
For disease onset experiments, symptom onset was assessed (i.e. loss of 10% body weight based on the highest recorded weight with muscle weakness and time to peak body weight (days), was assessed and monitored daily by trained staff starting at 90 days of age i.e., well before pre-symptom onset of disease also, monitored daily for several significant humane point indicators including a) Mouse unable to right itself in 15 sec b) 25% loss of weight on the highest recorded weight c) Full paralysis of one or more hind limbs d) Loss of bladder functions e) Crusty eyes/loss of vision f) Penile prolapse. One tailed (unpaired t test) was performed to analyse age to reach (10%) loss of body weight.

[1] = individual animals, NS-1-2 treatment (N = 10)

## Cc1cc(B2OC(C)(C)C(C)(C)O2)n(-c2ccccc2)n1 [NS-1-2, 3-methyl-5-(4,4,5,5-tetramethyl-1,3,2-dioxaborolan-2-yl)-1-phenyl1H-pyrazole]
10 mg/kg/day IP from age 90 to 210 days
  prolongation of survival age or life span versus control (Kaplan-Meier): 14.5 days
10 mg/kg/day IP from age 90 to 210 days, n=10, FIG. 14
  mean age of survival (humane end point): 196.7 days
10 mg/kg/day IP from age 90 to 210 days, n=10, FIG. 15
  median survival (Kaplan-Meier): 199.5 days
Age to reach peak body weight
  delay of disease onset versus control (Kaplan-Meier): 20 days
Based on highest recorded weight, n=10, FIG. 16
  percentage mean weight loss (humane end point): 17.55%
[1]
  Age to reach 10% loss of body weight based on highest recorded weight with muscle weakness: 199 days and 171 days and 184 days and 180 days and 193 days and 195 days (2×) and 203 days and 196 days and 165 days
  Disease Onset: Age to reach peak body weight: 143 days (2×) and 156 days and 147 days and 154 days and 164 days and 163 days and 188 days and 148 days and 144 days
  Treatment G37R (Survival Days) (Humane End Point): 201 Days (2×) and 205 Days and 189 Days and 195 Days and 198 Days and 203 Days and 197 Days and 204 Days and 174 Days
Individual animals, above or below the 25% criterion
  25% Loss of Weight Based on Highest Recorded Weight (Humane End Point): Weight Loss <25%
Individual animals, humane end point, based on highest recorded weight
  Weight Loss (%): Weight Loss (%): 17.056; also recorded: Weight Loss (%): 18.91; also recorded: Weight Loss (%): 19.67; also recorded: Weight Loss (%): 20; also recorded: Weight Loss (%): 15.68; also recorded: Weight Loss (%): 18.543; also recorded: Weight Loss (%): 10.122; also recorded: Weight Loss (%): 13.66; also recorded: Weight Loss (%): 18.548; also recorded: Weight Loss (%): 23.34
mean, 10 mg/kg/day IP from age 90 to 210 days
  difference in survival versus control: 13.3 days
mouse, in vivo
  delay of disease onset versus control (10% weight loss): around 23.2 days
  delay of disease onset versus control (time to peak body weight, mean): around 23.6 days
n=10, FIG. 17
  disease onset: mean age (loss of 10% body weight with muscle weakness): 188.1 days
n=10, FIG. 18
  disease onset: mean age (time to peak body weight): 155 days
n=10, FIG. 19
  median age to reach peak body weight (Kaplan-Meier, printed as median survival): 151 days
